{"source": "patent US5807535A", "about": "“Metal complexes of hydroxyaryl containing aminocarboxylic acid chelating agents” (Australian Nuclear Science & Technology Organisation, priority 1992, dated 1998)", "key": {"[1]": {"assay": "Biodistribution of 99mTc complexes in mice", "assay_type": "in vivo, Balb/c mice", "outline": "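Chelator (approx. 1 mg/ml final) labelled with 99mTc via excess stannous chloride at pH approx. 6, labelling efficacy checked by ITLC-SG. Complexes diluted to 15 μCi/100 μl in saline before dosing to mice.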"}, "[2]": {"assay": "Effect of pH on complexation of 99mTc with ligand (5)", "assay_type": "physicochemical", "method": "Radiolabelling with ^99m Tc was investigated over a range of pHs (3.0-10.0) (described in Table B). To ligand (5) (1.0 ml:1 mg/ml) dissolved in appropriate buffer was added an excess of stannous chloride (20 μl:2 mg/ml) in 0.1 N HCl. To this mixture is added an appropriate activity of ^99m TcO4 (20 μl) eluted from a technetium generator.\nAll reactions were carried out at room temperature.\nPercent complexation was monitored by ITLC-SG using two solvent systems. […]"}}}
{"molecule": "Nc1ccc(O)c(NC(=O)CN(CCN(CC(=O)O)CC(=O)Nc2cc(N)ccc2O)CC(=O)O)c1", "note": "[Compound 5]", "values": [{"measurement": "biodistribution bone", "setting": "[1]; 1 min", "result": 6.02, "unit": "% Injected dose"}, {"measurement": "biodistribution kidney", "setting": "[1]; 1 min", "result": 9.08, "unit": "% Injected dose"}, {"measurement": "biodistribution liver", "setting": "[1]; 1 min", "result": 5.72, "unit": "% Injected dose"}, {"measurement": "biodistribution muscle", "setting": "[1]; 1 min", "result": 23.78, "unit": "% Injected dose"}, {"measurement": "biodistribution skin", "setting": "[1]; 1 min", "result": 18.09, "unit": "% Injected dose"}, {"measurement": "biodistribution spleen", "setting": "[1]; 1 min", "result": 0.14, "unit": "% Injected dose"}, {"measurement": "biodistribution urine", "setting": "[1]; 1 min", "result": 0, "unit": "% Injected dose"}, {"measurement": "biodistribution kidney", "setting": "[1]; 3 min", "result": 8.71, "unit": "% Injected dose"}, {"measurement": "biodistribution liver", "setting": "[1]; 3 min", "result": 5.04, "unit": "% Injected dose"}, {"measurement": "biodistribution muscle", "setting": "[1]; 3 min", "result": 15.39, "unit": "% Injected dose"}, {"measurement": "biodistribution skin", "setting": "[1]; 3 min", "result": 19.66, "unit": "% Injected dose"}, {"measurement": "biodistribution spleen", "setting": "[1]; 3 min", "result": 0.16, "unit": "% Injected dose"}, {"measurement": "biodistribution urine", "setting": "[1]; 3 min", "result": 2.97, "unit": "% Injected dose"}, {"measurement": "biodistribution kidney", "setting": "[1]; 5 min", "result": 6.71, "unit": "% Injected dose"}, {"measurement": "biodistribution liver", "setting": "[1]; 5 min", "result": 4.34, "unit": "% Injected dose"}, {"measurement": "biodistribution muscle", "setting": "[1]; 5 min", "result": 11.74, "unit": "% Injected dose"}, {"measurement": "biodistribution skin", "setting": "[1]; 5 min", "result": 19.83, "unit": "% Injected dose"}, {"measurement": "biodistribution spleen", "setting": "[1]; 5 min", "result": 0.12, "unit": "% Injected dose"}, {"measurement": "biodistribution urine", "setting": "[1]; 5 min", "result": 6.52, "unit": "% Injected dose"}, {"measurement": "biodistribution kidney", "setting": "[1]; 10 min", "result": 5.97, "unit": "% Injected dose"}, {"measurement": "biodistribution liver", "setting": "[1]; 10 min", "result": 5.34, "unit": "% Injected dose"}, {"measurement": "biodistribution muscle", "setting": "[1]; 10 min", "result": 9.67, "unit": "% Injected dose"}, {"measurement": "biodistribution skin", "setting": "[1]; 10 min", "result": 23.93, "unit": "% Injected dose"}, {"measurement": "biodistribution spleen", "setting": "[1]; 10 min", "result": 0.11, "unit": "% Injected dose"}, {"measurement": "biodistribution urine", "setting": "[1]; 10 min", "result": 10.66, "unit": "% Injected dose"}, {"measurement": "biodistribution kidney", "setting": "[1]; 30 min", "result": 3.75, "unit": "% Injected dose"}, {"measurement": "biodistribution liver", "setting": "[1]; 30 min", "result": 2.86, "unit": "% Injected dose"}, {"measurement": "biodistribution muscle", "setting": "[1]; 30 min", "result": 23.84, "unit": "% Injected dose"}, {"measurement": "biodistribution skin", "setting": "[1]; 30 min", "result": 17.37, "unit": "% Injected dose"}, {"measurement": "biodistribution spleen", "setting": "[1]; 30 min", "result": 0.06, "unit": "% Injected dose"}, {"measurement": "biodistribution urine", "setting": "[1]; 30 min", "result": 5.91, "unit": "% Injected dose"}, {"measurement": "complexation", "setting": "[2]; 99mTc, pH 10.0", "result": "poor"}, {"measurement": "stability of product", "setting": "[2]; 99mTc, pH 10.0", "result": "unstable"}, {"measurement": "stability of final product (stable for upto)", "setting": "[2]; 99mTc, pH range 3.0-9.0", "result": "≤ 2", "unit": "h"}, {"measurement": "optimum pH of complexation", "setting": "[2]; 99mTc, room temperature", "result": "3.0-4.0 pH"}, {"measurement": "Percent 99mTc complexed", "setting": "[2]; pH 3, 1 min", "result": 89, "unit": "%"}, {"measurement": "Percent 99mTc complexed", "setting": "[2]; pH 3, 3 min", "result": 93, "unit": "%"}, {"measurement": "Percent 99mTc complexed", "setting": "[2]; pH 3, 5 min", "result": 90, "unit": "%"}, {"measurement": "Percent 99mTc complexed", "setting": "[2]; pH 3, 10 min", "result": 91, "unit": "%"}, {"measurement": "Percent 99mTc complexed", "setting": "[2]; pH 3, 15 min", "result": 90, "unit": "%"}, {"measurement": "Percent 99mTc complexed", "setting": "[2]; pH 3, 30 min", "result": 92, "unit": "%"}, {"measurement": "Percent 99mTc complexed", "setting": "[2]; pH 3, 1 h", "result": 92, "unit": "%"}, {"measurement": "Percent 99mTc complexed", "setting": "[2]; pH 3, 2 h", "result": 94, "unit": "%"}, {"measurement": "Percent 99mTc complexed", "setting": "[2]; pH 4, 1 min", "result": 94, "unit": "%"}, {"measurement": "Percent 99mTc complexed", "setting": "[2]; pH 4, 3 min", "result": 97, "unit": "%"}, {"measurement": "Percent 99mTc complexed", "setting": "[2]; pH 4, 5 min", "result": 92, "unit": "%"}, {"measurement": "Percent 99mTc complexed", "setting": "[2]; pH 4, 10 min", "result": 94, "unit": "%"}, {"measurement": "Percent 99mTc complexed", "setting": "[2]; pH 4, 15 min", "result": 96, "unit": "%"}, {"measurement": "Percent 99mTc complexed", "setting": "[2]; pH 4, 30 min", "result": 91, "unit": "%"}, {"measurement": "Percent 99mTc complexed", "setting": "[2]; pH 4, 1 h", "result": 100, "unit": "%"}, {"measurement": "Percent 99mTc complexed", "setting": "[2]; pH 4, 2 h", "result": 100, "unit": "%"}, {"measurement": "Percent 99mTc complexed", "setting": "[2]; pH 5, 1 min", "result": 84, "unit": "%"}, {"measurement": "Percent 99mTc complexed", "setting": "[2]; pH 5, 3 min", "result": 83, "unit": "%"}, {"measurement": "Percent 99mTc complexed", "setting": "[2]; pH 5, 5 min", "result": 91, "unit": "%"}, {"measurement": "Percent 99mTc complexed", "setting": "[2]; pH 5, 10 min", "result": 83, "unit": "%"}, {"measurement": "Percent 99mTc complexed", "setting": "[2]; pH 5, 15 min", "result": 81, "unit": "%"}, {"measurement": "Percent 99mTc complexed", "setting": "[2]; pH 5, 30 min", "result": 71, "unit": "%"}, {"measurement": "Percent 99mTc complexed", "setting": "[2]; pH 5, 1 h", "result": 85, "unit": "%"}, {"measurement": "Percent 99mTc complexed", "setting": "[2]; pH 5, 2 h", "result": 88, "unit": "%"}, {"measurement": "Percent 99mTc complexed", "setting": "[2]; pH 6, 1 min", "result": 80, "unit": "%"}, {"measurement": "Percent 99mTc complexed", "setting": "[2]; pH 6, 3 min", "result": 80, "unit": "%"}, {"measurement": "Percent 99mTc complexed", "setting": "[2]; pH 6, 5 min", "result": 83, "unit": "%"}, {"measurement": "Percent 99mTc complexed", "setting": "[2]; pH 6, 10 min", "result": 80, "unit": "%"}, {"measurement": "Percent 99mTc complexed", "setting": "[2]; pH 6, 15 min", "result": 82, "unit": "%"}, {"measurement": "Percent 99mTc complexed", "setting": "[2]; pH 6, 30 min", "result": 90, "unit": "%"}, {"measurement": "Percent 99mTc complexed", "setting": "[2]; pH 6, 1 h", "result": 85, "unit": "%"}, {"measurement": "Percent 99mTc complexed", "setting": "[2]; pH 6, 2 h", "result": 91, "unit": "%"}, {"measurement": "Percent 99mTc complexed", "setting": "[2]; pH 7, 1 min", "result": 73, "unit": "%"}, {"measurement": "Percent 99mTc complexed", "setting": "[2]; pH 7, 3 min", "result": 83, "unit": "%"}, {"measurement": "Percent 99mTc complexed", "setting": "[2]; pH 7, 5 min", "result": 81, "unit": "%"}, {"measurement": "Percent 99mTc complexed", "setting": "[2]; pH 7, 10 min", "result": 74, "unit": "%"}, {"measurement": "Percent 99mTc complexed", "setting": "[2]; pH 7, 15 min", "result": 87, "unit": "%"}, {"measurement": "Percent 99mTc complexed", "setting": "[2]; pH 7, 30 min", "result": 80, "unit": "%"}, {"measurement": "Percent 99mTc complexed", "setting": "[2]; pH 7, 1 h", "result": 83, "unit": "%"}, {"measurement": "Percent 99mTc complexed", "setting": "[2]; pH 7, 2 h", "result": 52, "unit": "%"}, {"measurement": "Percent 99mTc complexed", "setting": "[2]; pH 8, 1 min", "result": 76, "unit": "%"}, {"measurement": "Percent 99mTc complexed", "setting": "[2]; pH 8, 3 min", "result": 88, "unit": "%"}, {"measurement": "Percent 99mTc complexed", "setting": "[2]; pH 8, 5 min", "result": 81, "unit": "%"}, {"measurement": "Percent 99mTc complexed", "setting": "[2]; pH 8, 10 min", "result": 83, "unit": "%"}, {"measurement": "Percent 99mTc complexed", "setting": "[2]; pH 8, 15 min", "result": 87, "unit": "%"}, {"measurement": "Percent 99mTc complexed", "setting": "[2]; pH 8, 30 min", "result": 85, "unit": "%"}, {"measurement": "Percent 99mTc complexed", "setting": "[2]; pH 8, 1 h", "result": 77, "unit": "%"}, {"measurement": "Percent 99mTc complexed", "setting": "[2]; pH 8, 2 h", "result": 81, "unit": "%"}, {"measurement": "Percent 99mTc complexed", "setting": "[2]; pH 9, 1 min", "result": 90, "unit": "%"}, {"measurement": "Percent 99mTc complexed", "setting": "[2]; pH 9, 3 min", "result": 100, "unit": "%"}, {"measurement": "Percent 99mTc complexed", "setting": "[2]; pH 9, 5 min", "result": 94, "unit": "%"}, {"measurement": "Percent 99mTc complexed", "setting": "[2]; pH 9, 10 min", "result": 86, "unit": "%"}, {"measurement": "Percent 99mTc complexed", "setting": "[2]; pH 9, 15 min", "result": 100, "unit": "%"}, {"measurement": "Percent 99mTc complexed", "setting": "[2]; pH 9, 30 min", "result": 83, "unit": "%"}, {"measurement": "Percent 99mTc complexed", "setting": "[2]; pH 9, 1 h", "result": 85, "unit": "%"}, {"measurement": "Percent 99mTc complexed", "setting": "[2]; pH 9, 2 h", "result": 74, "unit": "%"}, {"measurement": "Percent 99mTc complexed", "setting": "[2]; pH 10, 1 min", "result": 15, "unit": "%"}, {"measurement": "Percent 99mTc complexed", "setting": "[2]; pH 10, 3 min", "result": 16, "unit": "%"}, {"measurement": "Percent 99mTc complexed", "setting": "[2]; pH 10, 5 min", "result": 11, "unit": "%"}, {"measurement": "Percent 99mTc complexed", "setting": "[2]; pH 10, 10 min", "result": 13, "unit": "%"}, {"measurement": "Percent 99mTc complexed", "setting": "[2]; pH 10, 15 min", "result": 9, "unit": "%"}, {"measurement": "Percent 99mTc complexed", "setting": "[2]; pH 10, 1 h", "result": 8, "unit": "%"}, {"measurement": "Percent 99mTc complexed", "setting": "[2]; pH 10, 2 h", "result": 8, "unit": "%"}]}
